# Data published in patent US20090062359A1 (AlgoRx, priority 2002, published 2009).
# Several values for one entry are separate records, joined by “and”; a condition that tells them apart may be missing. Identical values can stand only once.
# Tests used:
# [1] = system: animal models of inflammatory and neuropathic pain; conditions: administered locally; formalin test and spinal nerve ligation; cited from earlier work
# patients = conditions: Langman et al, Lancet 1994; cited from earlier work
# rats = conditions: systemic, cited from earlier work
# [2] = cited from earlier work
# [3] = system: subjects with osteoarthritis of the knee; experiment: Osteoarthritis of the knee safety study (Phase 1): safety, tolerability and VAS pain after intra-articular infiltration; type: in vivo, human; conditions: for patients reporting transient burning pain immediately following instillation: after 2% lignocaine
# Experimental: The primary objective of the study was to evaluate the safety and tolerability of intra-articular capsaicin, when co-administered with intra-articular local anesthetic, compared to placebo, in subjects with end-stage osteoarthritis of the knee, already scheduled to receive knee replacements.
# The study was designed to include 16 evaluation subjects. […] Sixteen subjects completed the study.
# Patients were treated randomly and in double-blind fashion in four treatment groups, with each group having a progressively longer interval between the intra-articular administration of study medication and subsequent total knee replacement (2, 4, 7, and 14 days). […] Gross and microscopic pathology analysis was completed for each treatment group before the next treatment group was treated.
# Each subject had 3 study visits: a Screening Day (Day −7 to −1), the Treatment Day (Day 0), and a Post-Treatment Day (scheduled for Day +2, +4, +7, or +14). On the Treatment Day the subject was randomized, pre-treatment evaluation was performed. The patients were brought into the procedure room, and a VAS pain score was taken (0 mm—no pain, 100 mm—extreme pain). Once the patient had marked his or her pain on the card, he/she was prepped for knee cannulation. Once the cannula was placed, the patient received by intra-articular infiltration, 3 mg/kg (maximum dose of 200 mg) of 2% lignocaine into the knee scheduled to be replaced.
# VAS pain scores as well as verbal reports were taken immediately following administration, as well as prior to knee replacement surgery. No subjects discontinued from the study due to adverse events.
# On the Post-Treatment Day, study evaluation was performed followed by the scheduled knee replacement, with intra-operative bone and soft tissue biopsies performed for subsequent examination. […] This therefore left the 3 placebo and 9 active patients from the 4 day, 7 day, and 14 day cohorts.
# [4] = system: subjects undergoing transpositional osteotomy (bunionectomy); experiment: Bunionectomy efficacy study (Phase II): VAS pain at the operation site and rescue analgesia; type: in vivo, human; conditions: for VAS pain score, mean +/− SEM: 1000 μg into the wound, n = 11
# Experimental: The primary efficacy endpoint was the proportion of subjects in each treatment group requiring opioid analgesia in the first 24 hours post-operatively. The proportions were compared amongst treatment groups using the Cochran-Haenszel test. Secondary efficacy end points included: i) proportion of subjects in each treatment group requiring opioid analgesia in the first 36 hour period post-operatively (Similarly, the proportions were compared amongst treatment groups using the Cochran-Haenszel test); ii) proportion of subjects in each treatment group requiring opioid analgesia in the 10 day period post-operatively (Similarly, the proportions were compared amongst treatment groups using the Cochran-Haenszel test); iii) time to first usage of opioid analgesia in each treatment group (a survival analysis approach will be used: the product-limit (Kaplan-Meier) method will be applied to time to first usage of opioid analgesia. The median time to first usage of opioid analgesia will be estimated in both treatment groups. Pairwise comparisons will be performed to test for equality of the survival curves between the 2 treatment groups using both the log-rank and the Wilcoxon test); iv) total usage of analgesia in each treatment group (the total usage of analgesia will be compared by an analysis of variance with treatment and center as independent variables. A pairwise comparison will be performed between the treatment groups); and v) VAS assessment of pain at the site of operation in each treatment group (The VAS score at each time point will be compared by an analysis of variance with treatment and center as independent variables. A pairwise comparison will be performed between the treatment groups). […] The efficacy analysis was performed on the data obtained ten days postoperatively. The safety analysis was performed based on the safety data for the entire study, including the 6 week and 12 week follow-up periods. The blind was broken at the time the efficacy analysis was performed. However, the individual treatment assignment was available to the statistical analysis group only. All other personnel involved in the study, including the Investigator, study monitor and proprietary staff, remained blinded until the entire study was completed.
# The study was designed to include 40 evaluation subjects. […] Each subject had six (6) study visits: a Screening Day (Day −28 to −1), an Operation Day (Day 0), and four (4) Follow-up visits (scheduled for Days 3, 10 and weeks 6 and 12).
# On Operation Day (Day 0) the following was performed: a) Pre-operation: Prior to the initiation of an ankle block, inclusion/exclusion criteria assessment was performed. […] Immediately prior to wound closure, the Investigator slowly dripped the study medication (4 mL) from a syringe into the wound, ensuring even tissue exposure. The wound was then be closed according to normal practices and procedures.
# In the 24 hours following administration of study medication, vital signs (supine pulse rate and blood pressure) were recorded at 1, 2, 4 and 24 hours post administration. VAS assessment of pain at the operation site was performed at 1, 4, 8, 12 and 24 hours post administration. In those instances where VAS measurements coincide with blood sampling procedures, the VAS assessment was performed first. […] The quantity of each blood sample was 10 mL. […] Adverse events were spontaneously reported by the subject and recorded. […]
# [5] = human, in vivo, 300 ug
# Experimental: The pharmacokinetic parameters of Cmax, Tmax, AUC(0−tlast) and t½ were evaluated.
structure (smiles),measurement,setting,value
CN(C)CCC=C1c2ccccc2CCc2ccccc21 [amitriptyline],local antinociceptive action,[1],produced local antinociceptive actions
CNCCCN1c2ccccc2CCc2ccccc21 [desipramine],local antinociceptive action,[1],produced local antinociceptive actions
CN1C(C(=O)Nc2ccccn2)=C(O)c2ccccc2S1(=O)=O [piroxicam],patients experiencing gross bleeding and ulceration,patients,up to 4%
"COc1cc(CNC(=O)CCCC/C=C/C(C)C)ccc1O [purified capsaicin, N-(4-hydroxy-3-methoxybenzyl)-8-methylnon-trans-6-enamide]",effect on radiation induced hyperalgesia,rats; final doses of 25 mg/kg or less prior to ultra violet radiation,prevented radiation induced hyperalgesia
same,effect on pain threshold,rats; final doses of 50 mg/kg or greater,pain threshold elevated
same,solubility in organic solvents,"[2]; alcohol, ether, benzene and chloroform",freely soluble
same,solubility in water,[2]; water,practically insoluble
same,patients reporting transient burning pain immediately following instillation,[3]; 10 μg capsaicin intra-articular,0 of 4
same,patients reporting transient burning pain immediately following instillation,[3]; 100 μg capsaicin intra-articular,1 of 4
same,duration of post-administration (hyper)algesic pain,"[3]; 100 μg dose group, single subject",9 min
same,patients reporting transient burning pain immediately following instillation,[3]; 300 μg capsaicin intra-articular,4 of 4
same,duration of post-administration (hyper)algesic pain,"[3]; 300 μg dose group, individual subjects",17 minutes and 25 minutes (2×) and 42 minutes
same,tolerability,"[3]; 10, 100 and 300 μg intra-articular",well tolerated at all dose levels
same,treatment related systemic side effects,[3]; all dose levels,No treatment related systemic side effects were seen
same,gross and microscopic pathology,"[3]; all dose levels, knee tissue at replacement",normal
same,onset of post-administration (hyper)algesia after administration,"[3]; all episodes, 100 μg and 300 μg dose groups",≤ 5 min
same,effect on proprioception at the injected knee,[3]; any dose group at any time point,no discernable effect
same,average duration of post injection hyperalgesia,"[3]; burning sensation, 100 μg and 300 μg dose groups",less than thirty minutes
same,"reduction of VAS pain score, before administration versus day of surgery","[3]; capsaicin group (9 active patients, 10-300 μg), 4 day, 7 day and 14 day cohorts",62±14%
same,treatment related indication of efficacy (VAS),"[3]; dose levels 10 μg, 100 μg and 300 μg",No clear treatment related indication of efficacy
same,study subjects requiring rescue (opioid rescue),"[4]; 1000 μg prior to wound closure, within 72 hours, n=11",45%
same,"VAS pain score, mean +/− SEM",[4]; 8 hr,5.5 +/− 2.3
same,"VAS pain score, mean +/− SEM",[4]; 12 hr,8.2 +/− 3.8
same,"VAS pain score, mean +/− SEM",[4]; 24 hr,1.9 +/− 1.0
same,"VAS pain score, mean +/− SEM",[4]; 48 hr,5.9 +/− 2.5
same,AUC(0−tlast),[5],0.49883 ng·h/mL
